Source: ChEMBL document CHEMBL1649263, “In vitro activity of a new quinoline derivative, ER-2, against clinical isolates of Mycoplasma pneumoniae and Mycoplasma hominis” (2009)
Values after ≈ are worked out from the molar mass of the structure shown.

Tests used:
[1] = system: Mycoplasmoides pneumoniae; assay: Antimicrobial activity against Mycoplasma pneumoniae by agar dilution method; assay type: functional
Metamycoplasma hominis = assay: Antimicrobial activity against Mycoplasma hominis by agar dilution method; assay type: functional

Row | Structure (SMILES) | MIC50 [1] | MIC90 [1] | MIC50 (Metamycoplasma hominis) | MIC90 (Metamycoplasma hominis) | MIC [1] | MIC (Metamycoplasma hominis)
1 | CN1C(=O)C2CC3C4Nc5ccc(Cl)cc5C(C)(C)C4CN3C2N(C)C1=O (stereo not given) | 0.001 µg/mL (≈ 0.00257 µM) | 0.016 µg/mL (≈ 0.0411 µM) | 0.032 µg/mL (≈ 0.0823 µM) | 0.06 µg/mL (≈ 0.154 µM) | 0.001 µg/mL (≈ 0.00257 µM) | –
2 | CC[C@H]1OC(=O)[C@H](C)[C@@H](O[C@H]2C[C@@](C)(OC)[C@@H](O)[C@H](C)O2)[C@H](C)[C@@H](O[C@@H]2O[C@H](C)C[C@H](N(C)C)[C@H]2O)[C@](C)(O)C[C@@H](C)CN(C)[C@H](C)[C@@H](O)[C@]1(C)O [AZITHROMYCIN] | 0.001 µg/mL (≈ 0.00134 µM) | 0.016 µg/mL (≈ 0.0214 µM) | – | – | 0.001 µg/mL (≈ 0.00134 µM) | –
3 | O=C(O)c1cn(C2CC2)c2cc(N3CCNCC3)c(F)cc2c1=O [CIPROFLOXACIN] | 4 µg/mL (≈ 12.1 µM) | 4 µg/mL (≈ 12.1 µM) | 1 µg/mL (≈ 3.02 µM) | 1 µg/mL (≈ 3.02 µM) | – | –
4 | C[C@H]1COc2c(N3CCN(C)CC3)c(F)cc3c(=O)c(C(=O)O)cn1c23.C[C@H]1COc2c(N3CCN(C)CC3)c(F)cc3c(=O)c(C(=O)O)cn1c23.O [LEVOFLOXACIN] | 1 µg/mL | 1 µg/mL | 0.25 µg/mL | 0.5 µg/mL | 0.012 µg/mL | 0.1 µg/mL
5 | COc1c(N2C[C@@H]3CCCN[C@@H]3C2)c(F)cc2c(=O)c(C(=O)O)cn(C3CC3)c12 [MOXIFLOXACIN] | 0.06 µg/mL (≈ 0.149 µM) | 0.12 µg/mL (≈ 0.299 µM) | 0.06 µg/mL (≈ 0.149 µM) | 0.06 µg/mL (≈ 0.149 µM) | 0.06 µg/mL (≈ 0.149 µM) | 0.063 µg/mL (≈ 0.157 µM)
6 | CN(C)[C@@H]1C(O)=C(C(N)=O)C(=O)[C@@]2(O)C(O)=C3C(=O)c4c(O)cccc4[C@@](C)(O)[C@H]3C[C@@H]12 [TETRACYCLINE] | 1 µg/mL (≈ 2.25 µM) | 1 µg/mL (≈ 2.25 µM) | 8 µg/mL (≈ 18 µM) | 8 µg/mL (≈ 18 µM) | – | –

The next lines start with results.

Row | MIC50 [1] | MIC90 [1] | MIC50 (Metamycoplasma hominis) | MIC90 (Metamycoplasma hominis) | Structure (SMILES) | MIC [1] | MIC (Metamycoplasma hominis)
7 | – | – | 0.032 µg/mL (≈ 0.0753 µM) | 0.032 µg/mL (≈ 0.0753 µM) | CCC[C@@H]1C[C@@H](C(=O)N[C@@H]([C@H]2O[C@H](SC)[C@H](O)[C@@H](O)[C@H]2O)[C@H](C)Cl)N(C)C1 [CLINDAMYCIN] | – | –
8 | 0.25 µg/mL | 0.25 µg/mL | 2 µg/mL | 2 µg/mL | C[C@H]1c2cccc(O)c2C(=O)C2=C(O)[C@]3(O)C(=O)C(C(N)=O)=C(O)[C@@H](N(C)C)[C@@H]3[C@@H](O)[C@@H]21.O [DOXYCYCLINE] | – | –
9 | 0.125 µg/mL (≈ 0.333 µM) | 0.125 µg/mL (≈ 0.333 µM) | 0.125 µg/mL (≈ 0.333 µM) | 0.125 µg/mL (≈ 0.333 µM) | COc1c(N2CCNC(C)C2)c(F)cc2c(=O)c(C(=O)O)cn(C3CC3)c12 (stereo not given) [GATIFLOXACIN] | – | –
10 | 0.032 µg/mL (≈ 0.0822 µM) | 0.125 µg/mL (≈ 0.321 µM) | – | – | CO/N=C1\CN(c2nc3c(cc2F)c(=O)c(C(=O)O)cn3C2CC2)CC1CN (stereo not given) [GEMIFLOXACIN] | – | –
